Among the data in patent US12258354B2, “AhR modulators” (IDEAYA BIOSCIENCES, INC., priority 2018, dated 2025) are IC50 values, retold here.

The experiment has as its target T1, hAhR (Homo sapiens, UniProt P35869).
T1 construct: Stably integrated DRE-luciferase cell lines were generated by transducing the both cell lines with Cignal XRE luciferase reporter; endogenous in cells; host or cells: HEPG2 DRE-Luc cells (only the XRE luciferase reporter was transduced)
T1 sequence (P35869 11-848): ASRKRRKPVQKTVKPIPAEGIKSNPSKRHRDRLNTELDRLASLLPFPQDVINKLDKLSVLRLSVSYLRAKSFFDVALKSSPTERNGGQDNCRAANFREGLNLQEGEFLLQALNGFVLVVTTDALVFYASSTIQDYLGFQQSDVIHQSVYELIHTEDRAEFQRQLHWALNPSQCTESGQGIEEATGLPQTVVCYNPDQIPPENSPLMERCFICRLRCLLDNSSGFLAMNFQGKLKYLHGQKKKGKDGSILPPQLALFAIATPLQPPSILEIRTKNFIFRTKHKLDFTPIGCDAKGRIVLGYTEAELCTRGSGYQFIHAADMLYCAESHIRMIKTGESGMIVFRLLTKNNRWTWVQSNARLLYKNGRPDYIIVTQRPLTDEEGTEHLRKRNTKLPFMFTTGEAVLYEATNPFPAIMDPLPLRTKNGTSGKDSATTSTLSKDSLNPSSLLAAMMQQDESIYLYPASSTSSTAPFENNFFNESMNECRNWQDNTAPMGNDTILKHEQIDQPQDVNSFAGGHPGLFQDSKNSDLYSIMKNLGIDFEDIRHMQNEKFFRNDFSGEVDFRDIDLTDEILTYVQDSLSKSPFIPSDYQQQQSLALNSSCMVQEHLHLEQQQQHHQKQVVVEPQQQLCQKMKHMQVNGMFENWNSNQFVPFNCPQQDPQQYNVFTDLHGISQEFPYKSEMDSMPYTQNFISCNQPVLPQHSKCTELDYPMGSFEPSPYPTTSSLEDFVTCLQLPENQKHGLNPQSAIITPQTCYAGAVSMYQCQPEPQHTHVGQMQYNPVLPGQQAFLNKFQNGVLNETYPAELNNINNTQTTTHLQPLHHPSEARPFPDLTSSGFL
Briefly: DRE-luciferase transcriptional reporter assay in HEPG2 DRE-Luc cells, TCDD-induced (antagonist mode). It is filed as cell-based. As to conditions: relative IC50, 3 nM TCDD, 24-hour incubation, firefly luciferase readout. On the procedure: HEPG2 and HEPA1C1C7 cells were maintained in MEM and αMEM without nucleosides supplemented with 10% heat inactivated FBS respectively. Stably integrated DRE-luciferase cell lines were generated by transducing the both cell lines with Cignal XRE luciferase reporter (Qiagen) lentiviral particles according to the manufacturer protocol. For both cell lines stably integrated reporter cell lines were selected for the presence of 2 μg/mL puromycin. Following selection of stably integrated cell line pools, clonal cell lines were isolated by limiting dilution in 96-well plates. Transcriptional assays were performed by seeding 100 μL of cells at a density of 250,000 or 100,000 cells/mL, for HEPG2 and HEPA1C1C7 DRE-Luc cells respectively, into 96-well cell culture plates in OptiMEM supplemented with 0.5% heat inactivated FBS and allowed to attach overnight. For modulator assays, the compounds were added in a semi-log dose response using a D300e Digital Dispenser (Tecan) followed normalization with vehicle (DMSO). Immediately following compound addition 10 μL of 2,3,7,8-Tetrachlorodibenzo-p-dioxin (TCDD) was added to the cells to a final concentration of 3 nM or 0.3 nM for the HEPG2 and HEPA1C1C7 DRE-Luc cells respectively. Following 24-hour incubation, the medium was removed and the cells were lysed in 25 μL of Reporter Lysis Buffer (Promega). Firefly luciferase activity was measured immediately following the addition of 50 μL Luciferase Assay Reagent (Promega). The percent maximal activity for each point was determined using the following equation: (RLUsample−RLUvehicle−TCDD)/(RLUvehicle+TCDD RLUvehicle−TCDD)*100. The relative IC50, defined as the compound concentration required to reduce the TCDD induced response between the top and bottom plateau of each individual dose response curve by half, for each compound was determined using Prism 7 (GraphPad Software).

“2-((2-hydroxy-2-azaspiro[3.3]heptan-2-yl)methyl)-3-methyl-5-(2-methyl-4-(6-(trifluoromethyl)pyrido[3,2-d]pyrimidin-2-yl)phenyl)-6,7-dihydropyrazolo[1,5-a]pyrazin-4 (5H)-one [Example 109]”: the IC50 (in general, the midpoint of a concentration-inhibition curve) was less than 200 nM. With `Cc1cc(-c2ncc3cc(C(F)(F)F)ccc3n2)ccc1N1CCn2ncc(C)c2S1(=O)=O` [Example 93, 8-methyl-2-(2-methyl-4-(6-(trifluoromethyl)quinazolin-2-yl)phenyl)-3,4-dihydro-2H-pyrazolo[1,5-e][1,2,5]thiadiazine 1,1-dioxide], the IC50 is less than 200 nM. With `Cc1cc(-c2ncc3cc(C(F)(F)F)ccc3n2)ccc1N1CCn2ncc(C3NC(=O)NC3=O)c2C1=O` (centres unmarked) [Example 94, 5-(5-(2-methyl-4-(6-(trifluoromethyl)quinazolin-2-yl)phenyl)-4-oxo-4,5,6,7-tetrahydropyrazolo[1,5-a]pyrazin-3-yl)imidazolidine-2,4-dione], the IC50 was less than 200 nM. The same measure for `Cc1cc(-c2ncc3cc(C(F)(F)F)ccc3n2)ccc1N1CCn2nc(CN3CCO[C@H](C)C3)c(C)c2C1=O` [Example 95, (R)-3-methyl-5-(2-methyl-4-(6-(trifluoromethyl)quinazolin-2-yl)phenyl)-2-((2-methylmorpholino)methyl)-6,7-dihydropyrazolo[1,5-a]pyrazin-4 (5H)-one]: less than 200 nM. Compound `Cc1cc(-c2ncc3cc(C(F)(F)F)ccc3n2)ccc1N1CCn2nc(CN3CCO[C@@H](C)C3)c(C)c2C1=O` [Example 96, (S)-3-methyl-5-(2-methyl-4-(6-(trifluoromethyl)quinazolin-2-yl)phenyl)-2-((2-methylmorpholino)methyl)-6,7-dihydropyrazolo[1,5-a]pyrazin-4 (5H)-one] came in with an IC50 of less than 200 nM. Next, `Cc1cc(-c2ncc3cc(C(F)(F)F)ccc3n2)ccc1N1CCn2nc(COP(=O)(O)O)c(C)c2C1=O` [Example 97, (3-methyl-5-(2-methyl-4-(6-(trifluoromethyl)quinazolin-2-yl)phenyl)-4-oxo-4,5,6,7-tetrahydropyrazolo[1,5-a]pyrazin-2-yl)methyl dihydrogen phosphate]: less than 200 nM; `Cc1cc(-c2ncc3cc(C(F)(F)F)ccc3n2)ccc1N1CCn2nc(CN3CCC(=O)CC3)c(C)c2C1=O` [Example 98, 3-methyl-5-(2-methyl-4-(6-(trifluoromethyl)quinazolin-2-yl)phenyl)-2-((4-oxopiperidin-1-yl)methyl)-6,7-dihydropyrazolo[1,5-a]pyrazin-4 (5H)-one]: less than 200 nM. `Cc1cc(-c2ncc3cc(C(F)(F)F)ccc3n2)ccc1N1CCn2nc(CN3CCC(F)CC3)c(C)c2C1=O` [Example 99, 2-((4-fluoropiperidin-1-yl)methyl)-3-methyl-5-(2-methyl-4-(6-(trifluoromethyl)-quinazolin-2-yl)phenyl)-6,7-dihydropyrazolo[1,5-a]pyrazin-4 (5H)-one] displayed an IC50 of less than 200 nM.

`Cc1cc(-c2ncc3cc(C(F)(F)F)ccc3n2)ccc1N1CCn2nc(CN3CCC(O)CC3)c(C)c2C1=O` [Example 100, 2-((4-hydroxypiperidin-1-yl)methyl)-3-methyl-5-(2-methyl-4-(6-(trifluoromethyl)-quinazolin-2-yl)phenyl)-6,7-dihydropyrazolo[1,5-a]pyrazin-4 (5H)-one]: the IC50 is less than 200 nM.

`Cc1cc(-c2ncc3cc(C(F)(F)F)ccc3n2)ccc1N1CCn2nc(CN3CCS(=O)(=O)CC3)c(C)c2C1=O` [Example 101, 2-((1,1-dioxidothiomorpholino)methyl)-3-methyl-5-(2-methyl-4-(6-(trifluoro-methyl)quinazolin-2-yl)phenyl)-6,7-dihydropyrazolo[1,5-a]pyrazin-4 (5H)-one] yielded an IC50 of less than 200 nM.

For `Cc1cc(-c2ncc3cc(C(F)(F)F)ccc3n2)ccc1N1CCn2nc(CN3CCC4(CC3)COC4)c(C)c2C1=O` [Example 102, 2-((2-oxa-7-azaspiro[3.5]nonan-7-yl)methyl)-3-methyl-5-(2-methyl-4-(6-(trifluoromethyl)quinazolin-2-yl)phenyl)-6,7-dihydropyrazolo[1,5-a]pyrazin-4 (5H)-one], the IC50 is less than 200 nM. `Cc1cc(-c2ncc3cc(C(F)(F)F)ccc3n2)ccc1N1CCn2nc(CN3CCN(C)CC3)c(C)c2C1=O` [Example 103, 3-methyl-5-(2-methyl-4-(6-(trifluoromethyl)quinazolin-2-yl)phenyl)-2-((4-methyl-piperazin-1-yl)methyl)-6,7-dihydropyrazolo[1,5-a]pyrazin-4 (5H)-one] had an IC50 of less than 200 nM. For the compound `Cc1cc(-c2ncc3cc(C(F)(F)F)ccc3n2)ccc1N1CCn2nc(CN3CCN(C)C(=O)C3)c(C)c2C1=O` [Example 104, 3-methyl-2-((4-methyl-3-oxopiperazin-1-yl)methyl)-5-(2-methyl-4-(6-(trifluoro-methyl)quinazolin-2-yl)phenyl)-6,7-dihydropyrazolo[1,5-a]pyrazin-4 (5H)-one], the IC50 is less than 200 nM.

As for `Cc1cc(-c2ncc3nc(C(F)(F)F)ccc3n2)ccc1N1CCn2nc(CN3CCOCC3)c(C)c2C1=O` [Example 105, 3-methyl-5-(2-methyl-4-(6-(trifluoromethyl)pyrido[3,2-d]pyrimidin-2-yl)phenyl)-2-(morpholinomethyl)-6,7-dihydropyrazolo[1,5-a]pyrazin-4 (5H)-one], the IC50 was less than 200 nM. As to `Cc1cc(-c2ccc3nc(C(F)(F)F)ccc3n2)ccc1N1CCn2nc(CN3CCOCC3)c(C)c2C1=O` [Example 106, 3-methyl-5-(2-methyl-4-(6-(trifluoromethyl)-1,5-naphthyridin-2-yl)phenyl)-2-(morpholinomethyl)-6,7-dihydropyrazolo[1,5-a]pyrazin-4 (5H)-one], the IC50 was less than 200 nM. Turning to `Cc1cc(-c2ncc3cc(C(F)(F)F)ccc3n2)ccc1N1CCn2nc(C(=O)N3CCN(C)CC3)c(C)c2C1=O` [Example 107, 3-methyl-5-(2-methyl-4-(6-(trifluoromethyl)quinazolin-2-yl)phenyl)-2-(4-methylpiperazine-1-carbonyl)-6,7-dihydropyrazolo[1,5-a]pyrazin-4 (5H)-one], the IC50 is less than 200 nM. Next, `Cc1cc(-c2ncc3cc(C(F)(F)F)ccc3n2)ccc1N1CCn2nc(CN3CCC(F)(F)CC3)c(C)c2C1=O` [Example 108, 2-((4,4-difluoropiperidin-1-yl)methyl)-3-methyl-5-(2-methyl-4-(6-(trifluoro-methyl)quinazolin-2-yl)phenyl)-6,7-dihydropyrazolo[1,5-a]pyrazin-4 (5H)-one]: less than 200 nM; `Cc1cc(-c2ncc3cc(C(F)(F)F)ccc3n2)ccc1N1CCn2nc(CN3CCCC4(COC4)C3)c(C)c2C1=O` [Example 110, 2-((2-oxa-6-azaspiro[3.5]nonan-6-yl)methyl)-3-methyl-5-(2-methyl-4-(6-(trifluoro-methyl)quinazolin-2-yl)phenyl)-6,7-dihydropyrazolo[1,5-a]pyrazin-4 (5H)-one]: less than 200 nM; `Cc1cc(-c2ncc3cc(C(F)(F)F)ccc3n2)ccc1N1CCn2nc(CN3CCC4(COC4)C3)c(C)c2C1=O` [Example 111, 2-((2-oxa-6-azaspiro[3.4]octan-6-yl)methyl)-3-methyl-5-(2-methyl-4-(6-(trifluoromethyl)quinazolin-2-yl)phenyl)-6,7-dihydropyrazolo[1,5-a]pyrazin-4 (5H)-one]: less than 200 nM. `Cc1cc(-c2ncc3cc(C(F)(F)F)ccc3n2)ccc1N1CCn2nc(C(C)N3CCOCC3)c(C)c2C1=O` (centres unmarked) [Example 112, 3-methyl-5-(2-methyl-4-(6-(trifluoromethyl)quinazolin-2-yl)phenyl)-2-(1-morpholinoethyl)-6,7-dihydropyrazolo[1,5-a]pyrazin-4 (5H)-one] had an IC50 of less than 200 nM.
